# Read-outs that look alike come from different tables or passages of the source.
# Experiments:
# basal epidermal cells = assay: BrdU incorporation in basal keratinocytes after TPA treatment; type: in vivo, mice
# Procedure: 5-bromo-2-deoxyuridine (BrdU) incorporation. 8-week-old K14.ATF2^f/f mice and WT mice were shaved 2 days before treatment with TPA (10 μg/200 μl acetone). BrdU (0.1 mg/g body weight) was injected intraperitoneally 1 h before the mice were sacrificed. The mice were euthanized 7, 24 and 48 h after six TPA treatments and their dorsal skins were removed, fixed in formalin and processed for paraffin embedding. Immunohistochemical staining was performed with a monoclonal anti-BrdU antibody (Sigma Aldrich, 1:100), which was applied to each section overnight at 4° C. after masking mouse IgG according to the protocol of the M.O.M. kit. […] BrdU positive and negative basal cells were counted in three to five randomly selected areas of each skin section (3-4 sections per mouse) and the mean percentage of BrdU-positive cells and standard deviation (s.d.) for each treatment group were determined.
# Induced DNA synthesis in basal epidermal cells of TPA-treated K14.ATF2^f/f mice. In light of the enhanced hyperplastic responses seen in the epidermis of K14.ATF2^f/f mice, possible changes in the rate of keratinocyte proliferation, which could account for the increased hyperplasia, were assessed. BrdU labeling was carried out to quantify DNA synthesis in basal keratinocytes. […]
# epidermis = conditions: three topical applications of TPA at 10 μg each; for thickness of hyperplastic epidermis (mean±SD): 18 hrs post treatment; for thickness of epidermal layers: after 48 hrs
# Procedure: Measurement of Hyperplasia. Hyperplasia was assessed in six WT and K14.ATF2^f/f mice (8-week-old) after treatment with acetone or TPA at the indicated time points. The thickness of the epidermis (μm) was measured using an image system (SlideBook-Intelligent imaging) in 15 fields per section.
# In order to determine the possible effect of ATF2 disruption on keratinocyte proliferation possible changes in epidermal hyperplasia was assessed.
SMILES,"mice having developed tumors (epidermal keratinocytes; mouse, in vivo) [%]","mice that had developed tumors (epidermal keratinocytes; mouse, in vivo)","papilloma development (epidermal keratinocytes; mouse, in vivo)","time at which papillomas started to appear after DMBA treatment (epidermal keratinocytes; mouse, in vivo)","percentage of BrdU-labeled basal cells (basal epidermal cells; K14.ATF2f/f mice, 24 h after TPA treatment) [%]","percentage of BrdU-labeled basal cells (basal epidermal cells; wild-type mice, 24 hours after TPA treatment) [%]",thickness of hyperplastic epidermis (mean±SD) (epidermis; K14.ATF2f/f mice) [μm],thickness of epidermal layers (epidermis; K14.ATF2f/f mice) [μm],thickness of hyperplastic epidermis (mean±SD) (epidermis; WT mice) [μm],thickness of epidermal layers (epidermis; wild-type mice) [μm],"papilloma development (epidermal keratinocytes; DMBA or TPA alone, WT or ATF2 mutant mice)"
"Cc1c2ccccc2c(C)c2c1ccc1ccccc12 [DMBA, 7,12-dimethylbenz[a]anthracene]",50,about 40%,did not result in papilloma development,around 17 weeks,–,–,–,–,–,–,–
CCCCCCCCCCCCCC(=O)O[C@@H]1[C@@H](C)[C@@]2(O)[C@@H](C=C(CO)C[C@]3(O)C(=O)C(C)=C[C@@H]23)[C@H]2C(C)(C)[C@]12OC(C)=O [TPA],–,–,–,–,32±3.0,15±3,42±3.2,102±2.8,21±2.6,45±2.3,did not result in papilloma development

# — patent US20110129844A1, “Use of Activating Transcription Factor-2 (ATF2) for Detecting Skin Cancer” (priority 2007, published 2011)
